Test results: PubChem BioAssay AID248 (DTP/NCI, 2004)
Toxic doses and inconclusive results are not listed. Rule as the data show it: active = T/C of 150% or more; inactive = T/C below 125%.

Test system: L1210 leukemia ip in BDF1 mice, survival T/C
Test: NCI In Vivo Anticancer Drug Screen. Data for tumor model L1210 Leukemia (intraperitoneal) in B6D2F1 (BDF1) mice
Details: endpoint: mean survival time, higher = longer survival
Summary of the method: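 Transplantable tumor model; survival measured in treated vs vehicle control mice. Value = treated/control.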

[1] = dose: 50.0 mg/kg/injection, schedule: Q01DX009 (ip), vehicle: saline with Tween-80
[2] = dose: 100.0 mg/kg/injection, schedule: Q01DX009 (ip), vehicle: saline with Tween-80
[3] = dose: 200.0 mg/kg/injection, schedule: Q01DX009 (ip), vehicle: saline with Tween-80
[4] = dose: 100.0 mg/kg/injection, schedule: Q04DX003 (ip), vehicle: Klucel (hydroxypropylcellulose) (HPC)
[5] = dose: 200.0 mg/kg/injection, schedule: Q04DX003 (ip), vehicle: Klucel (hydroxypropylcellulose) (HPC)
[6] = dose: 400.0 mg/kg/injection, schedule: Q04DX003 (ip), vehicle: Klucel (hydroxypropylcellulose) (HPC)
[7] = dose: 100.0 mg/kg/injection, schedule: Q01DX009 (ip), vehicle: Klucel (hydroxypropylcellulose) (HPC)
[8] = dose: 200.0 mg/kg/injection, schedule: Q01DX009 (ip), vehicle: Klucel (hydroxypropylcellulose) (HPC)

Measured: T/C

COC(=O)CC(C)C(C)(C)[N+](=O)[O-] (stereo not given)
inactive: [1] 92 % of control | [2] 92 % of control | [3] 92 % of control

CCCNC(=O)NS(=O)(=O)c1ccc(Cl)cc1
inactive: [4] 93 % of control | [5] 94 % of control | [6] 104 % of control

CCN(CC)C(=O)N(CC)C(=O)CN(C)C
inactive: dose: 100.0 mg/kg/injection, schedule: Q04DX003 (ip), vehicle: saline 102 % of control | dose: 200.0 mg/kg/injection, schedule: Q04DX003 (ip), vehicle: saline 102 % of control | dose: 400.0 mg/kg/injection, schedule: Q04DX003 (ip), vehicle: saline 96 % of control

Clc1ccc2c(NCCNC3CCCCC3)ccnc2c1
inactive: dose: 9.38 mg/kg/injection, schedule: Q01DX001 (ip), vehicle: saline 105 % of control | dose: 18.75 mg/kg/injection, schedule: Q01DX001 (ip), vehicle: saline 100 % of control | dose: 37.5 mg/kg/injection, schedule: Q01DX001 (ip), vehicle: saline 108 % of control

Cc1cc([N+](=O)[O-])c(N/N=C/c2c[nH]c3ccccc23)c([N+](=O)[O-])c1
inactive: dose: 100.0 mg/kg/injection, schedule: Q01DX009 (ip), vehicle: saline 102 % of control | dose: 200.0 mg/kg/injection, schedule: Q01DX009 (ip), vehicle: saline 93 % of control | dose: 400.0 mg/kg/injection, schedule: Q01DX009 (ip), vehicle: saline 98 % of control

O=C(Nc1ccc(Cl)c(Cl)c1)Nc1ccc(Oc2ccc(Cl)cc2Cl)cc1S(=O)(=O)O
inactive: dose: 100.0 mg/kg/injection, schedule: Q04DX003 (ip), vehicle: alcohol 100 % of control | dose: 200.0 mg/kg/injection, schedule: Q04DX003 (ip), vehicle: alcohol 103 % of control

CCOC(=O)C(=Cc1ccccc1Cl)C(=O)OCC
inactive: [7] 88 % of control | [4] 104 % of control | [8] 99 % of control | [5] 90 % of control

CC(C)c1cccc(OS(=O)(=O)c2ccccc2[N+](=O)[O-])c1
inactive: dose: 25.0 mg/kg/injection, schedule: Q01DX009 (ip), vehicle: saline with Tween-80 105 % of control | [1] 105 % of control | [2] 105 % of control | [4] 93 % of control | [6] 96 % of control

Cc1ccc(NC(=O)ON(C)C)cc1
inactive: dose: 25.0 mg/kg/injection, schedule: Q04DX002 (ip), vehicle: other 99 % of control | dose: 50.0 mg/kg/injection, schedule: Q04DX002 (ip), vehicle: other 96 % of control | dose: 100.0 mg/kg/injection, schedule: Q04DX002 (ip), vehicle: other 92 % of control

O=c1[nH]c(=O)n2n1CC(Br)C(Br)C2 (stereo not given)
inactive: [2] 94 % of control | dose: 100.0 mg/kg/injection, schedule: Q04DX003 (ip), vehicle: saline with Tween-80 106 % of control | [3] 96 % of control | dose: 200.0 mg/kg/injection, schedule: Q04DX003 (ip), vehicle: saline with Tween-80 110 % of control | dose: 400.0 mg/kg/injection, schedule: Q01DX009 (ip), vehicle: saline with Tween-80 100 % of control | dose: 400.0 mg/kg/injection, schedule: Q04DX003 (ip), vehicle: saline with Tween-80 94 % of control

OC1(Cc2ccccc2)CCCCCC1
inactive: dose: 100.0 mg/kg/injection, schedule: Q01DX005 (ip), vehicle: other 118 % of control | dose: 100.0 mg/kg/injection, schedule: Q01DX009 (ip), vehicle: other 103 % of control | dose: 200.0 mg/kg/injection, schedule: Q01DX005 (ip), vehicle: other 93 % of control | dose: 200.0 mg/kg/injection, schedule: Q01DX009 (ip), vehicle: other 118 % of control | dose: 400.0 mg/kg/injection, schedule: Q01DX005 (ip), vehicle: other 93 % of control | dose: 400.0 mg/kg/injection, schedule: Q01DX009 (ip), vehicle: other 100 % of control

CC(C)(C)NC(=O)Oc1ccc(-c2ccccc2)cc1Cl
inactive: [7] 95 % of control | [8] 100 % of control | dose: 400.0 mg/kg/injection, schedule: Q01DX009 (ip), vehicle: Klucel (hydroxypropylcellulose) (HPC) 100 % of control

CCOC(=O)C1CC(O)CN1 (stereo not given)
inactive: dose: 100.0 mg/kg/injection, schedule: Q04DX003 (ip), vehicle: saline sonified 97 % of control | dose: 200.0 mg/kg/injection, schedule: Q04DX003 (ip), vehicle: saline sonified 100 % of control | dose: 400.0 mg/kg/injection, schedule: Q04DX003 (ip), vehicle: saline sonified 87 % of control

O=C(COc1cccc(Cl)c1)NCc1ccccc1NC(=O)c1cccc(S(=O)(=O)F)c1
inactive: dose: 100.0 mg/kg/injection, schedule: Q01DX001 (ip), vehicle: carboxymethylcellulose (CMC) 90 % of control | dose: 200.0 mg/kg/injection, schedule: Q01DX001 (ip), vehicle: carboxymethylcellulose (CMC) 95 % of control | dose: 400.0 mg/kg/injection, schedule: Q01DX001 (ip), vehicle: carboxymethylcellulose (CMC) 95 % of control
